What was measured:
Assay in all cases: cell-based
[1] = target: hNav1.3 (Homo sapiens, UniProt Q9NY46); details: IonWorks Quattro; Table 6; read-out: IC50 (μM) Nav1.3
[2] = target: hNav1.5 (Homo sapiens, UniProt Q14524); details: IonWorks Quattro; Table 6; read-out: IC50 (μM) Nav1.5
[3] = target: hNav1.7 (Homo sapiens, UniProt Q15858); details: read-out: IC50 (μM) Nav1.7
[4] = target: hNav1.4 (Homo sapiens, UniProt P35499); type: cell-based; details: Table 6; for IC50: IonWorks Quattro, read-out: IC50 (μM) Nav1.4; for Nav1.4/Nav1.7: ratio of IonWorks Quattro IC50 values

Chain of hNav1.7 (Q15858 whole entry): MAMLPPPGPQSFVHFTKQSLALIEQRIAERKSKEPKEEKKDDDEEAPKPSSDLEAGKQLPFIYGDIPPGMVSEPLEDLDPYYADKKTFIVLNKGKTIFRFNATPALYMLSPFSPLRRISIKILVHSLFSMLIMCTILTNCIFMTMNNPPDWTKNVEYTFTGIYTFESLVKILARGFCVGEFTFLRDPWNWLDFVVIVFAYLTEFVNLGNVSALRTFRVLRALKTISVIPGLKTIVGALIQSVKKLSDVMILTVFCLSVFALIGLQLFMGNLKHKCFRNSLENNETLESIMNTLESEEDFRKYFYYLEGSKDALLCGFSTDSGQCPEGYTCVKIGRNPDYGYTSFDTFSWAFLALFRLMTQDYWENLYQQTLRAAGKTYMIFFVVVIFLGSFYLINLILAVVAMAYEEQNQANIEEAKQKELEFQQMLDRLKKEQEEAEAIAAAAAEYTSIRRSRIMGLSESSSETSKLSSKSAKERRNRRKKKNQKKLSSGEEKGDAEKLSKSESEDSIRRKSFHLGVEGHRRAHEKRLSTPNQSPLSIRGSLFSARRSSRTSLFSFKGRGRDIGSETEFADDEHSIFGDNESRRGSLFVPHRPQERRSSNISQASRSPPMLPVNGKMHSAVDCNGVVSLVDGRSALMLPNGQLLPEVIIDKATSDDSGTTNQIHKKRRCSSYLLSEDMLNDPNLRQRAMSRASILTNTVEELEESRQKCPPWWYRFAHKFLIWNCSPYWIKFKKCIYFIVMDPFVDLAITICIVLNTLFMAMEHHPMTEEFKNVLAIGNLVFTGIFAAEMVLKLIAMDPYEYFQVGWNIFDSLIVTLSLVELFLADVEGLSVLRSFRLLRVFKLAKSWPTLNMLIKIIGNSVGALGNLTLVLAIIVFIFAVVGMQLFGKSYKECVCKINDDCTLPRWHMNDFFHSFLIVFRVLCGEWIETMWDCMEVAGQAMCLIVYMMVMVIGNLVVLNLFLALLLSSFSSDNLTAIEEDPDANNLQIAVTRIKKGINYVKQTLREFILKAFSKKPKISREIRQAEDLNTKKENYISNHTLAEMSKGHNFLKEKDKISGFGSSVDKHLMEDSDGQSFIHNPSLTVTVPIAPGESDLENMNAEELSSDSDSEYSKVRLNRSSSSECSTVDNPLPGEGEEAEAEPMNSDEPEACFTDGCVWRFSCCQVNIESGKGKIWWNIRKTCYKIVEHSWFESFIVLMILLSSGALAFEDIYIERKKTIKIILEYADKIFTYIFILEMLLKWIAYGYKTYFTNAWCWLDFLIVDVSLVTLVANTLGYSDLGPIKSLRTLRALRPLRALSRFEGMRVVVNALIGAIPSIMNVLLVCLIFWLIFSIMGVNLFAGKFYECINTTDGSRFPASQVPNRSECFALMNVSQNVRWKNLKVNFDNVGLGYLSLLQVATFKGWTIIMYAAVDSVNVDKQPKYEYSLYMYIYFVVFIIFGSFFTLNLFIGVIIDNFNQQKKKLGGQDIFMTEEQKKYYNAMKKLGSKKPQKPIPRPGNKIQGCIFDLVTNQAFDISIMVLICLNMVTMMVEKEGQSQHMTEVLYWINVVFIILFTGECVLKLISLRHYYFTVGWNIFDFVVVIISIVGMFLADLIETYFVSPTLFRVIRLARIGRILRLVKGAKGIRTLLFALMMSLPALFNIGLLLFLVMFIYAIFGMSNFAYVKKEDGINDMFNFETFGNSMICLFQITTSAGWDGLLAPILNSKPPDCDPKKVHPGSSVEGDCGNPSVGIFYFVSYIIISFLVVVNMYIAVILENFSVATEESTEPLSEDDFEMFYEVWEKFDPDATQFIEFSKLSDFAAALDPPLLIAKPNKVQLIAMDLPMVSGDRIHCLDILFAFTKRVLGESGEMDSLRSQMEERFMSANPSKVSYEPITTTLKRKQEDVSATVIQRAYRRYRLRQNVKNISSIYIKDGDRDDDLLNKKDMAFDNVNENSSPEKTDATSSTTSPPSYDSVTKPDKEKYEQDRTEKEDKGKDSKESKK
Chain of hNav1.3 (Q9NY46 whole entry): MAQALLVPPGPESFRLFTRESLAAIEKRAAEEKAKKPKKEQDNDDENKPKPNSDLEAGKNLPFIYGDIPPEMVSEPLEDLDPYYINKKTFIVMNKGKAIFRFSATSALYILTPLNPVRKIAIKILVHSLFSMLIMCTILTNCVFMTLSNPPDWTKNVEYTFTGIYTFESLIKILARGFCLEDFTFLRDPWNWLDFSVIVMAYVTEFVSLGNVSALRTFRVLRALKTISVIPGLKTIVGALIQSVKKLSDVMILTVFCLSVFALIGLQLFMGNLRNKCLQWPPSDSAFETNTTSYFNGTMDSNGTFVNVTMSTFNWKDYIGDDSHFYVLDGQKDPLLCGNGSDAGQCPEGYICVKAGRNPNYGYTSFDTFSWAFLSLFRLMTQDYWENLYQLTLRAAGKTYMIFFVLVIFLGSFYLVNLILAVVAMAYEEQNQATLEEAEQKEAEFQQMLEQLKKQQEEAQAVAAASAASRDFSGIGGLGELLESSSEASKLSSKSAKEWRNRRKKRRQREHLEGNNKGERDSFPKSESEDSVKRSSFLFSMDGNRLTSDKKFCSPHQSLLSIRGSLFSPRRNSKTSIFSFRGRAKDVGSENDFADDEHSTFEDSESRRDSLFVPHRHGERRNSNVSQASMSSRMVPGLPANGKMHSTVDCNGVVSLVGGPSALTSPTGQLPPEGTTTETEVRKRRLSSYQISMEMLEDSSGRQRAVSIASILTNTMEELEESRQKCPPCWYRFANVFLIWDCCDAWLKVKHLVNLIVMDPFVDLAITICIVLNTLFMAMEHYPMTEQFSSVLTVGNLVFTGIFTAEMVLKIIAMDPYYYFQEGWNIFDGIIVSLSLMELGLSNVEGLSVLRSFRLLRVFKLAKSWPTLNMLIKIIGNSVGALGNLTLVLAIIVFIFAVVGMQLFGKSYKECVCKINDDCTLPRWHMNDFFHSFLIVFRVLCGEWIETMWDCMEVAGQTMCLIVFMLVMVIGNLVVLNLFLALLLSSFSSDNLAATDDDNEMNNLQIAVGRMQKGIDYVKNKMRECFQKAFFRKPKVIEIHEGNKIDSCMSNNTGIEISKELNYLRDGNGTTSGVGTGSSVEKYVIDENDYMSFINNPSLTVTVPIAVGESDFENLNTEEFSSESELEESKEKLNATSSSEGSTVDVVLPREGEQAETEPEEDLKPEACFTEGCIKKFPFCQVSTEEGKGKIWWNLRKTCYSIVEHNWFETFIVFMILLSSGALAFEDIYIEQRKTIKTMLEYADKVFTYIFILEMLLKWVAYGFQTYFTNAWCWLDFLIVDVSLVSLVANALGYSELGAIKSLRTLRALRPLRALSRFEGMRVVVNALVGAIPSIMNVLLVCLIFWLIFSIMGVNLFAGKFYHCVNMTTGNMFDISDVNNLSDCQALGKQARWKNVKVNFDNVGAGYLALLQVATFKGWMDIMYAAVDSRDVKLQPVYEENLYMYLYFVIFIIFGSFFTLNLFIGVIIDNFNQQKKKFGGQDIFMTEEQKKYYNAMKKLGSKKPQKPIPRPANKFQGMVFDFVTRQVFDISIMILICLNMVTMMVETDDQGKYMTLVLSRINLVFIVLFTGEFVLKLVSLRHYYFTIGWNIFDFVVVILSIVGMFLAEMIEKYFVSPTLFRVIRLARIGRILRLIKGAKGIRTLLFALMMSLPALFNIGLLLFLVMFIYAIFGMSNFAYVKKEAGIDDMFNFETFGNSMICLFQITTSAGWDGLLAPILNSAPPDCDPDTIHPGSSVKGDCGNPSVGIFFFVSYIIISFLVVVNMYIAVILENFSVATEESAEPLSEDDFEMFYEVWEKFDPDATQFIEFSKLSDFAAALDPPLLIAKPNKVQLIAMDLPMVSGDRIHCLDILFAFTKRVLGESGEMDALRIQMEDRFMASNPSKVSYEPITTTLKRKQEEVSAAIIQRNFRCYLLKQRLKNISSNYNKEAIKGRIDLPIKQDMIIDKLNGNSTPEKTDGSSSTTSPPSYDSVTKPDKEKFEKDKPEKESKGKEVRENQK

Row | Structure (SMILES) | IC50 [1] | IC50 [2] | IC50 [3] | IC50 [4] | Nav1.4/Nav1.7 [4]
1 | CC[C@H](C)[C@H](NC(=O)[C@H](Cc1cccc2ccccc12)NC(=O)[C@H](CCCCN)NC(=O)[C@H](CCCNC(=N)N)NC(=O)[C@@H]1CSSC[C@@H]2NC(=O)[C@H](C)NC(=O)[C@H](CCCNC(=N)N)NC(=O)[C@H](CCCCN)NC(=O)[C@H](CO)NC(=O)[C@H](CC(=O)O)NC(=O)[C@@H]3CSSC[C@H](NC(=O)[C@H](CCCNC(=N)N)NC(=O)[C@H](CC(C)C)NC(=O)CNC(=O)[C@H](CCC(=O)O)NC(=O)[C@H](CSSC[C@H](NC(=O)[C@@H](N)Cc4ccc(O)cc4)C(=O)N[C@@H](CCC(N)=O)C(=O)N[C@@H](CCCCN)C(=O)N[C@@H](Cc4c[nH]c5ccccc45)C(=O)N[C@@H](CCSC)C(=O)N[C@@H](Cc4c[nH]c5ccccc45)C(=O)N[C@@H]([C@@H](C)O)C(=O)N3)NC2=O)C(=O)N[C@@H](CCCCN)C(=O)N[C@@H](CC(C)C)C(=O)N[C@@H](Cc2c[nH]c3ccccc23)C(=O)N1)C(N)=O [compound 46] | 0.06 µM | 3.6 µM | 0.006 µM | 0.1 µM | 17
2 | CC[C@H](C)[C@H](NC(=O)[C@@H](NC(=O)[C@H](CCCCN)NC(=O)[C@H](CCCNC(=N)N)NC(=O)[C@@H]1CSSC[C@@H]2NC(=O)[C@H](C)NC(=O)[C@H](CCCNC(=N)N)NC(=O)[C@H](CCCCN)NC(=O)[C@H](CO)NC(=O)[C@H](CC(=O)O)NC(=O)[C@@H]3CSSC[C@H](NC(=O)[C@H](CCCNC(=N)N)NC(=O)[C@H](CC(C)C)NC(=O)CNC(=O)[C@H](CCC(=O)O)NC(=O)[C@H](CSSC[C@H](NC(=O)[C@@H](N)CCCCN)C(=O)N[C@@H](CCC(N)=O)C(=O)N[C@@H](CCCCN)C(=O)N[C@@H](Cc4c[nH]c5ccccc45)C(=O)N[C@@H](CCSC)C(=O)N[C@@H](Cc4c[nH]c5ccccc45)C(=O)N[C@@H]([C@@H](C)O)C(=O)N3)NC2=O)C(=O)N[C@@H](CCCCN)C(=O)N[C@@H](CC(C)C)C(=O)N[C@@H](Cc2c[nH]c3ccccc23)C(=O)N1)[C@@H](C)CC)C(N)=O [compound 71] | 0.05 µM | 2.3 µM | 0.005 µM | 0.06 µM | 12
3 | CC[C@H](C)[C@H](NC(=O)[C@@H](NC(=O)[C@H](CCCCN)NC(=O)[C@H](CCCNC(=N)N)NC(=O)[C@@H]1CSSC[C@@H]2NC(=O)[C@H](C)NC(=O)[C@H](CCCNC(=N)N)NC(=O)[C@H](CCCCN)NC(=O)[C@H](CO)NC(=O)[C@H](CC(=O)O)NC(=O)[C@@H]3CSSC[C@H](NC(=O)[C@H](CCCNC(=N)N)NC(=O)[C@H](CC(C)C)NC(=O)CNC(=O)[C@H](CCC(=O)O)NC(=O)[C@H](CSSC[C@H](NC(=O)[C@@H](N)Cc4ccc(O)cc4)C(=O)N[C@@H](CCC(N)=O)C(=O)N[C@@H](CCCCN)C(=O)N[C@@H](Cc4c[nH]c5ccccc45)C(=O)N[C@@H](CCSC)C(=O)N[C@@H](CCCCN)C(=O)N[C@@H]([C@@H](C)O)C(=O)N3)NC2=O)C(=O)N[C@@H](CCCCN)C(=O)N[C@@H](CC(C)C)C(=O)N[C@@H](Cc2c[nH]c3ccccc23)C(=O)N1)[C@@H](C)CC)C(N)=O [compound 75] | 0.31 µM | > 5 µM | 0.08 µM | 0.43 µM | 5
4 | CC[C@H](C)[C@H](NC(=O)[C@@H](NC(=O)[C@H](CCCCN)NC(=O)[C@H](CCCNC(=N)N)NC(=O)[C@@H]1CSSC[C@@H]2NC(=O)[C@H](C)NC(=O)[C@H](CCCNC(=N)N)NC(=O)[C@H](CCCCN)NC(=O)[C@H](CO)NC(=O)[C@H](CC(=O)O)NC(=O)[C@@H]3CSSC[C@H](NC(=O)[C@H](CCCNC(=N)N)NC(=O)[C@H](CC(C)C)NC(=O)CNC(=O)[C@H](CCC(=O)O)NC(=O)[C@H](CSSC[C@H](NC(=O)[C@@H](N)Cc4ccc(O)cc4)C(=O)N[C@@H](CCC(N)=O)C(=O)N[C@@H](CCCCN)C(=O)N[C@@H](Cc4c[nH]c5ccccc45)C(=O)N[C@@H](CCSC)C(=O)N[C@@H](Cc4c[nH]c5ccccc45)C(=O)N[C@@H](CCCCN)C(=O)N3)NC2=O)C(=O)N[C@@H](CCCCN)C(=O)N[C@@H](CC(C)C)C(=O)N[C@@H](Cc2c[nH]c3ccccc23)C(=O)N1)[C@@H](C)CC)C(N)=O [compound 76] | 0.1 µM | 3.7 µM | 0.031 µM | 0.1 µM | 3
5 | CC[C@H](C)[C@H](NC(=O)[C@@H](NC(=O)[C@H](CCCCN)NC(=O)[C@H](CCCNC(=N)N)NC(=O)[C@@H]1CSSC[C@@H]2NC(=O)[C@H](C)NC(=O)[C@H](CCCNC(=N)N)NC(=O)[C@H](CCCCN)NC(=O)[C@H](CCCCN)NC(=O)[C@H](CC(=O)O)NC(=O)[C@@H]3CSSC[C@H](NC(=O)[C@H](CCCNC(=N)N)NC(=O)[C@H](CC(C)C)NC(=O)CNC(=O)[C@H](CCC(=O)O)NC(=O)[C@H](CSSC[C@H](NC(=O)[C@@H](N)Cc4ccc(O)cc4)C(=O)N[C@@H](CCC(N)=O)C(=O)N[C@@H](CCCCN)C(=O)N[C@@H](Cc4c[nH]c5ccccc45)C(=O)N[C@@H](CCSC)C(=O)N[C@@H](Cc4c[nH]c5ccccc45)C(=O)N[C@@H]([C@@H](C)O)C(=O)N3)NC2=O)C(=O)N[C@@H](CCCCN)C(=O)N[C@@H](CC(C)C)C(=O)N[C@@H](Cc2c[nH]c3ccccc23)C(=O)N1)[C@@H](C)CC)C(N)=O [compound 78] | 0.05 µM | 1.1 µM | 0.008 µM | 0.11 µM | 13
6 | CC[C@H](C)[C@H](NC(=O)[C@@H](NC(=O)[C@H](CCCCN)NC(=O)[C@H](CCCNC(=N)N)NC(=O)[C@@H]1CSSC[C@@H]2NC(=O)[C@H](C)NC(=O)[C@H](CCCCN)NC(=O)[C@H](CCCCN)NC(=O)[C@H](CO)NC(=O)[C@H](CC(=O)O)NC(=O)[C@@H]3CSSC[C@H](NC(=O)[C@H](CCCNC(=N)N)NC(=O)[C@H](CC(C)C)NC(=O)CNC(=O)[C@H](CCC(=O)O)NC(=O)[C@H](CSSC[C@H](NC(=O)[C@@H](N)Cc4ccc(O)cc4)C(=O)N[C@@H](CCC(N)=O)C(=O)N[C@@H](CCCCN)C(=O)N[C@@H](Cc4c[nH]c5ccccc45)C(=O)N[C@@H](CCSC)C(=O)N[C@@H](Cc4c[nH]c5ccccc45)C(=O)N[C@@H]([C@@H](C)O)C(=O)N3)NC2=O)C(=O)N[C@@H](CCCCN)C(=O)N[C@@H](CC(C)C)C(=O)N[C@@H](Cc2c[nH]c3ccccc23)C(=O)N1)[C@@H](C)CC)C(N)=O [compound 79] | 0.12 µM | > 5 µM | 0.064 µM | 0.47 µM | 7
7 | CC[C@H](C)[C@H](NC(=O)[C@@H](NC(=O)[C@H](CCCCN)NC(=O)[C@H](CCCNC(=N)N)NC(=O)[C@@H]1CSSC[C@@H]2NC(=O)[C@H](CCCCN)NC(=O)[C@H](CCCNC(=N)N)NC(=O)[C@H](CCCCN)NC(=O)[C@H](CO)NC(=O)[C@H](CC(=O)O)NC(=O)[C@@H]3CSSC[C@H](NC(=O)[C@H](CCCNC(=N)N)NC(=O)[C@H](CC(C)C)NC(=O)CNC(=O)[C@H](CCC(=O)O)NC(=O)[C@H](CSSC[C@H](NC(=O)[C@@H](N)Cc4ccc(O)cc4)C(=O)N[C@@H](CCC(N)=O)C(=O)N[C@@H](CCCCN)C(=O)N[C@@H](Cc4c[nH]c5ccccc45)C(=O)N[C@@H](CCSC)C(=O)N[C@@H](Cc4c[nH]c5ccccc45)C(=O)N[C@@H]([C@@H](C)O)C(=O)N3)NC2=O)C(=O)N[C@@H](CCCCN)C(=O)N[C@@H](CC(C)C)C(=O)N[C@@H](Cc2c[nH]c3ccccc23)C(=O)N1)[C@@H](C)CC)C(N)=O [compound 80] | 0.03 µM | 1.5 µM | 0.007 µM | 0.07 µM | 10
8 | CC[C@H](C)[C@H](NC(=O)[C@@H](NC(=O)[C@H](CCCCN)NC(=O)[C@H](CCCNC(=N)N)NC(=O)[C@@H]1CSSC[C@@H]2NC(=O)[C@H](C)NC(=O)[C@H](CCCNC(=N)N)NC(=O)[C@H](CCCCN)NC(=O)[C@H](CO)NC(=O)[C@H](CC(=O)O)NC(=O)[C@@H]3CSSC[C@H](NC(=O)[C@H](CCCNC(=N)N)NC(=O)[C@H](CC(C)C)NC(=O)CNC(=O)[C@H](CCCCN)NC(=O)[C@H](CSSC[C@H](NC(=O)[C@@H](N)Cc4ccc(O)cc4)C(=O)N[C@@H](CCC(N)=O)C(=O)N[C@@H](CCCCN)C(=O)N[C@@H](Cc4c[nH]c5ccccc45)C(=O)N[C@@H](CCSC)C(=O)N[C@@H](Cc4c[nH]c5ccccc45)C(=O)N[C@@H]([C@@H](C)O)C(=O)N3)NC2=O)C(=O)N[C@@H](CCCCN)C(=O)N[C@@H](CC(C)C)C(=O)N[C@@H](Cc2c[nH]c3ccccc23)C(=O)N1)[C@@H](C)CC)C(N)=O [compound 81] | 0.03 µM | 0.89 µM | 0.01 µM | 0.05 µM | 5
9 | CC[C@H](C)[C@H](NC(=O)[C@@H](NC(=O)[C@H](CCCCN)NC(=O)[C@H](CCCNC(=N)N)NC(=O)[C@@H]1CSSC[C@@H]2NC(=O)[C@H](C)NC(=O)[C@H](CCCNC(=N)N)NC(=O)[C@H](CCCCN)NC(=O)[C@H](CO)NC(=O)[C@H](CC(=O)O)NC(=O)[C@@H]3CSSC[C@H](NC(=O)[C@H](CCCCN)NC(=O)[C@H](CC(C)C)NC(=O)CNC(=O)[C@H](CCC(=O)O)NC(=O)[C@H](CSSC[C@H](NC(=O)[C@@H](N)Cc4ccc(O)cc4)C(=O)N[C@@H](CCC(N)=O)C(=O)N[C@@H](CCCCN)C(=O)N[C@@H](Cc4c[nH]c5ccccc45)C(=O)N[C@@H](CCSC)C(=O)N[C@@H](Cc4c[nH]c5ccccc45)C(=O)N[C@@H]([C@@H](C)O)C(=O)N3)NC2=O)C(=O)N[C@@H](CCCCN)C(=O)N[C@@H](CC(C)C)C(=O)N[C@@H](Cc2c[nH]c3ccccc23)C(=O)N1)[C@@H](C)CC)C(N)=O [compound 84] | 0.06 µM | 3.4 µM | 0.02 µM | 0.26 µM | 13

— patent US10344060B2 (priority 2013, dated 2019)
